Data from patent US12226396B2, “Gluconic acid derivatives for use in the treatment and/or prevention of microbial infections” (GEDEA BIOTECH AB, priority 2017, dated 2025).

Tests used:
Candida glabrata = assay: Biofilm formation assay (crystal violet); format: cell-based; details: for normalized biofilm (OD560) at pH 2.6: pH 2.6, 72 h treatment; for normalized biofilm (OD560) at pH 6.1: pH 6.1, 72 h treatment
Procedure: (§1) Yeast strains (Table 1) were grown at 37° C. in complete medium YPD (0.5% yeast extract, 1% peptone, 2% glucose) or minimal medium consisting of YNB (yeast nitrogen base without amino acids and ammonium sulphate, FORMEDIUM™, CYN0505) supplemented with 0.5% ammonium sulphate, 0.2% glucose and 100 mM L-proline. If needed 2% agar was used to solidify media. The liquid minimal medium (YNB (yeast nitrogen base without amino acids and ammonium sulphate, FORMEDIUM™, CYN0505) supplemented with 0.5% ammonium sulphate, 0.2% glucose and 100 mM L-proline) was used for biofilm assay (biofilm medium).
(§2) In the experiments on the impact of pH on biofilm the pH values (from 2.6 to 6.6) were obtained using either different potassium phosphate buffers at the final concentration 0.25 M, or by the addition of citric acid, lactic acid, and gluconic acid to the biofilm medium.
(§3) Biofilm was measured in liquid culture as described [K. Scherz et al., G3 (Bethesda), 2014, 4, 1671-1680. I. Serrano-Fujarte et al. Biomed Res Int. 2015; 2015:783639] with some modifications. Prior the biofilm assay, yeast cultures were grown in liquid YPD medium for 24 hours until stationary phase (OD600 11-17)^2, cells were then pelleted by centrifugation (1699 g), washed with sterile water and cells were further inoculated into test biofilm medium (YNB (yeast nitrogen base without amino acids and ammonium sulphate) supplemented with 0.5% ammonium sulphate, 0.2% glucose and 100 mM L-proline pH7.0) at final concentration 0.2 OD600/ml and incubated in 96-well flat-bottom polystyrene microtiter plates (Sigma Aldrich, Corning® Costar® culture plates, CLS3596-50EA) for 72 hours at 37° C. thermostat. At defined time points crystal violet (HT901-8FOZ; Sigma Aldrich) was added to the media at the final concentration 0.05%, in addition total biomass was measured. After 24 hours of cells staining, plate wells were washed four times with 200 μl of water to remove planktonic cells, biofilms were then dried and dissolved in 200 μl of 96% ethanol. Total biomass and crystal violet biofilm staining measurements were performed at OD560 with FLUOstar OPTIMA plate reader, BMG LABTECH. Crystal violet biofilm measurements were normalized to the total biomass (OD560Biofilm/OD560 total biomass).
Candida glabrata is much more complicated to treat, compared to Candida albicans. However, a clear effect is obtained by longer treatment, i.e. 72 h with gluconic acid (Table 4).

Escherichia coli K12 = assay: E. coli biofilm study in M9 medium (crystal violet); format: cell-based; details: for effect on growth (biomass): M9 medium, 24-48 hours; for biofilm lowered: pH 6.6
Procedure: The bacterial strain Escherichia coli K12 was used for the biofilm study. This strain was maintained on LB medium at 37° C. The biofilm was studied in synthetic medium M9 (×1 M9 minimal salts (Sigma M6030), 2 mM MgSO4, 0.1 mM CaCl2, and 0.2% glucose), which contained either phosphate buffer, citric acid, lactic acid, gluconic acid or glucono-O-lactone to obtain media with different pH (2.6-6.6).
The overnight culture of E. coli K12 (OD600˜5.0) was washed with sterile water and inoculated to the final concentration 0.2 OD/ml of M9 medium with different pH of different compounds. The biofilm development was studied in 96-well flat-bottom polystyrene microtiter plates (Sigma Aldrich, Corning® Costar® culture plates, CLS3596-50EA). The biofilm was stained with crystal violet.

[1] = Resulting pH of biofilm medium after addition of hydroxylated carboxylic acid; format: physicochemical; details: 0.06% acid in biofilm medium, unbuffered
Procedure: (§4) To compare the effects of different hydroxylated carboxylic acids at low concentrations, the biofilm formation was measured 24 h after addition of 0.06 wt % of glyceric acid, xylonic acid, citric acid, gluconic acid, and lactic acid, under unbuffered conditions.

Candida albicans = assay: Biofilm formation assay (crystal violet); format: cell-based; details: for normalized biofilm (% of control): 0.06 wt % acid, unbuffered, biofilm measured after 24 h; for normalized biofilm (OD560) at pH 2.6: pH 2.6, 24 h treatment; for normalized biofilm (OD560) at pH 6.1: pH 6.1, 24 h treatment
Procedure: as §1, §2, §3, §4
In order to further evaluate the effect of gluconic acid in preventing biofilm formation, the biofilm formation at different pH were determined (as described in Example 1) for gluconic acid, lactic acid and citric acid.

| Compound | normalized biofilm (OD560) at pH 2.6 (Candida glabrata) [OD560] | normalized biofilm (OD560) at pH 6.1 (Candida glabrata) [OD560] | effect on growth (biomass) (Escherichia coli K12) | resulting pH [1] | normalized biofilm (% of control) (Candida albicans) | normalized biofilm (OD560) at pH 2.6 (Candida albicans) [OD560] | normalized biofilm (OD560) at pH 6.1 (Candida albicans) [OD560] | biofilm lower compared to the phosphate medium (Escherichia coli K12; pH 2.6) [fold] | biofilm lower compared to the phosphate medium (Escherichia coli K12; pH 3.0) [fold] | biofilm lowered (Escherichia coli K12) [fold] | less biofilm formation on replacing lactic acid by gluconic acid (Candida albicans; 0.06 wt %, 24 h, 6% vs 13% of control) [%] |
| --- | --- | --- | --- | --- | --- | --- | --- | --- | --- | --- | --- |
| O=C(O)CC(O)(CC(=O)O)C(=O)O [citric acid] | 1.0 | 2.9 | inhibiting effect on the growth | 4.6 | 14 % of control | 0.34 | 4.6 | – | – | – | – |
| O=C(O)[C@H](O)[C@@H](O)[C@H](O)[C@H](O)CO [gluconic acid] | 0.07 | 1.6 | inhibiting effect on the growth | 6.5 | 6 % of control | – | 0.17 | 38 | 15 | ~2 | > 50 |
| O=C(O)C(O)CO (centres unmarked) [glyceric acid] | – | – | – | 7.0 | 40 % of control | – | – | – | – | – | – |
| CC(O)C(=O)O (centres unmarked) [lactic acid] | 0.9 | 2.8 | inhibiting effect on the growth | 4.9 | 13 % of control | 1.6 | 3.1 | – | – | ~2 | – |
| O=C(O)[C@H](O)[C@@H](O)[C@H](O)CO [xylonic acid] | – | – | – | 7.0 | 31 % of control | – | – | – | – | – | – |
